US20250041307A1, “Uses of Bicyclic Compounds for the Treatment of Diseases” (Athira Pharma, Inc., priority 2021, published 2025)

Experiments:
[1] = test system: scopolamine-induced cognitive impairment; experiment: Scopolamine-induced cognitive impairment, T-maze spontaneous alternation task; assay type: in vivo, CD-1 mice; parameters: key to Significance (compared to scopolamine only): * = p < 0.05; ** = p < 0.01; ns = not significant; details: mice; for Spontaneous alternations %: scopolamine 0.89 mg/kg; for Significance (compared to scopolamine only): spontaneous alternations
Description: Mild cognitive impairment can be assessed in rodent models via delivery of various compounds that interfere with normal neurotransmitter signaling. Scopolamine is a compound that is well-known to antagonize muscarinic acetylcholine receptors, nicotinic receptors, as well as glutamatergic receptors such as NMDA receptors. Thus, delivery of scopolamine results in cognitive impairment, which can be assessed in a variety of cognitive tasks. Positive modulation of the HGF/MET system can promote NMDA receptor activation and results in pro-cognitive effects. Two test compounds, Compound 1a and Compound 5a, were evaluated for their ability to protect against scopolamine-induced cognitive impairment.
In this study, mild cognitive impairment was modeled in otherwise healthy male CD-1 mice (4-5 weeks old at study start) by acute delivery of 0.89 mg/kg scopolamine (dissolved in saline). Test compounds were administered via oral gavage 0.5 hours prior to scopolamine exposure, and cognitive performance was assessed in the T-maze spontaneous alternation task 0.5 hours after scopolamine exposure (1 hour following test compound exposure). The experimental protocol consisted of one single session, which started with 1 “forced-choice” trial, followed by 14 “free-choice” trials. In the first “forced-choice” trial, the animal was confined 5 seconds in the start arm and was then released while either the left or right goal arm was blocked by a horizontal door. After the mouse entered the open goal arm and returned to the start position, the left or right goal door was opened, and the animal was allowed to choose freely between the left and right goal arm (“free choice trials”). The animal was considered to have entered into an arm when it placed its four paws in the arm. Normal animals will choose to explore the previously-unexplored arm, which is recorded as a spontaneous alternation. […] The session was terminated, and the animal was removed from the maze as soon as 14 free-choice trials had been performed or 10 min had elapsed, whichever event occurred first.
This percentage was defined as entry into a different goal arm of the T maze over successive trials (e.g., left-right-left-right) and was calculated using the formula: (% alternations=Number of Alternations/14*100). Both compounds attenuated the degree of scopolamine-induced cognitive impairment, as indicated by increased percent of spontaneous alternations compared to scopolamine-only controls. Statistical analysis was accomplished via 1-way ANOVA with Dunnet's multiple comparisons post-test.

[2] = test system: Rat primary cortical neuron cultures; experiment: Protection from neurotoxicity in vitro (Cell Titer-Glo viability); assay type: cell-based; parameters: key to Protection of cell viability, statistical significance vs. insult control: NS=not significant; +=p<0.05; ++=p<0.01; +++=p<0.001
Description: HGF/MET signaling activation is expected to protect cells, including neurons, from cell death. […] Hydrogen peroxide (H2O2) treatment produces toxic oxidative stress. Bacteria-derived lipopolysaccharide (LPS) treatment induces inflammatory cell death. Treatment with excess glutamate (Glut) produces excitotoxicity in neuron cultures. Treatment with 1-methyl-4-phenylpyridinium (MPP^+) causes cell death by inhibition of mitochondrial function.
Rat primary cortical neuron cultures were grown at 37° C., 5% CO2 in Complete Neurobasal Medium supplemented with B27/GDNF/BDNF containing 10% FBS until maturity and were then seeded in 384-well plate at 5,000 cells/well. Cultures were then treated for 15 minutes with 1 uM, 100 nM, 10 nM, 1 nM, or 0.1 nM of compound 1a. Cells were then subjected to individual conditional insults for 24 hours at the following concentrations: H2O2 at 1 uM, LPS at 1 uM, glutamate at 25 uM, MPP+ at 500 uM. All treatments contained recombinant human HGF (R&D Systems) at a concentration of 5 ng/ml.
To quantify neuroprotection, cell viability was measured with the Cell Titer-Glo Luminescent Cell Viability Assay (Promega, Cat #G7571). Data was normalized to DMSO+HGF control set at 100% cell viability. Statistical analyses for each group (n=4) were performed using one-way ANOVA with Tukey's Multiple comparison test.
Data is reported as statistical significance vs. insult control, with NS=not significant, +=p<0.05, ++=p<0.01, and +++=p<0.001.

Compound: CCC(C)CN1CC2N(Cc3ccc(C(F)(F)F)cc3)CCC(=O)N2[C@@H](C)C1=O (some centres unmarked) [Compound 5a]
- Spontaneous alternations % ([1]; 1.25 mg/kg via PO): 51%
- Significance (compared to scopolamine only) ([1]; 1.25 mg/kg via PO): * (* = p < 0.05)
- Spontaneous alternations % ([1]; 2.5 mg/kg via PO): 57%
- Significance (compared to scopolamine only) ([1]; 2.5 mg/kg via PO): ** (** = p < 0.01)
- Spontaneous alternations % ([1]; 5 mg/kg via PO): 52%
- Significance (compared to scopolamine only) ([1]; 5 mg/kg via PO): * (* = p < 0.05)
- Spontaneous alternations % ([1]; 10 mg/kg via PO): 55%
- Significance (compared to scopolamine only) ([1]; 10 mg/kg via PO): ** (** = p < 0.01)
- Spontaneous alternations % ([1]; 20 mg/kg via PO): 52%
- Significance (compared to scopolamine only) ([1]; 20 mg/kg via PO): * (* = p < 0.05)

Compound: CCC(C)CN1CC2N(C(=O)c3ccc(C(F)(F)F)cc3)CCC(=O)N2[C@@H](C)C1=O (some centres unmarked) [Compound 1a]
- Spontaneous alternations % ([1]; 0.5 mg/kg via PO): 52%
- Significance (compared to scopolamine only) ([1]; 0.5 mg/kg via PO): ** (** = p < 0.01)
- Spontaneous alternations % ([1]; 2 mg/kg via PO): 55%
- Significance (compared to scopolamine only) ([1]; 2 mg/kg via PO): ** (** = p < 0.01)
- Spontaneous alternations % ([1]; 8 mg/kg via PO): 47%
- Significance (compared to scopolamine only) ([1]; 8 mg/kg via PO): ns
- Spontaneous alternations % ([1]; 16 mg/kg via PO): 51%
- Significance (compared to scopolamine only) ([1]; 16 mg/kg via PO): * (* = p < 0.05)
- Spontaneous alternations % ([1]; 32 mg/kg via PO): 55%
- Significance (compared to scopolamine only) ([1]; 32 mg/kg via PO): ** (** = p < 0.01)
- Neuroprotective effect on rat neurons in culture ([2]; broad range of concentrations, entire cohort of insults tested): effective neuroprotective treatment
- Protection of cell viability, statistical significance vs. insult control ([2]; insult Glutamate (25 uM) 24 hours, 0.1 nM + HGF (5 ng/ml)): +++ (+++=p<0.001)
- Protection of cell viability, statistical significance vs. insult control ([2]; insult Glutamate (25 uM) 24 hours, 1 nM + HGF (5 ng/ml)): +++ (+++=p<0.001)
- Protection of cell viability, statistical significance vs. insult control ([2]; insult Glutamate (25 uM) 24 hours, 100 nM (first column so headed) + HGF (5 ng/ml)): +++ (+++=p<0.001)
- Protection of cell viability, statistical significance vs. insult control ([2]; insult Glutamate (25 uM) 24 hours, 100 nM (second column so headed) + HGF (5 ng/ml)): +++ (+++=p<0.001)
- Protection of cell viability, statistical significance vs. insult control ([2]; insult Glutamate (25 uM) 24 hours, 1 uM + HGF (5 ng/ml)): +++ (+++=p<0.001)
- Protection of cell viability, statistical significance vs. insult control ([2]; insult H2O2 (1 uM) 24 hours, 0.1 nM + HGF (5 ng/ml)): +++ (+++=p<0.001)
- Protection of cell viability, statistical significance vs. insult control ([2]; insult H2O2 (1 uM) 24 hours, 1 nM + HGF (5 ng/ml)): +++ (+++=p<0.001)
- Protection of cell viability, statistical significance vs. insult control ([2]; insult H2O2 (1 uM) 24 hours, 100 nM (first column so headed) + HGF (5 ng/ml)): +++ (+++=p<0.001)
- Protection of cell viability, statistical significance vs. insult control ([2]; insult H2O2 (1 uM) 24 hours, 100 nM (second column so headed) + HGF (5 ng/ml)): +++ (+++=p<0.001)
- Protection of cell viability, statistical significance vs. insult control ([2]; insult H2O2 (1 uM) 24 hours, 1 uM + HGF (5 ng/ml)): +++ (+++=p<0.001)
- Protection of cell viability, statistical significance vs. insult control ([2]; insult LPS (1 uM) 24 hours, 0.1 nM + HGF (5 ng/ml)): +++ (+++=p<0.001)
- Protection of cell viability, statistical significance vs. insult control ([2]; insult LPS (1 uM) 24 hours, 1 nM + HGF (5 ng/ml)): NS
- Protection of cell viability, statistical significance vs. insult control ([2]; insult LPS (1 uM) 24 hours, 100 nM (first column so headed) + HGF (5 ng/ml)): +++ (+++=p<0.001)
- Protection of cell viability, statistical significance vs. insult control ([2]; insult LPS (1 uM) 24 hours, 100 nM (second column so headed) + HGF (5 ng/ml)): +++ (+++=p<0.001)
- Protection of cell viability, statistical significance vs. insult control ([2]; insult LPS (1 uM) 24 hours, 1 uM + HGF (5 ng/ml)): +++ (+++=p<0.001)
- Protection of cell viability, statistical significance vs. insult control ([2]; insult MPP+ (500 uM) 24 hours, 0.1 nM + HGF (5 ng/ml)): +++ (+++=p<0.001)
- Protection of cell viability, statistical significance vs. insult control ([2]; insult MPP+ (500 uM) 24 hours, 1 nM + HGF (5 ng/ml)): +++ (+++=p<0.001)
- Protection of cell viability, statistical significance vs. insult control ([2]; insult MPP+ (500 uM) 24 hours, 100 nM (first column so headed) + HGF (5 ng/ml)): +++ (+++=p<0.001)
- Protection of cell viability, statistical significance vs. insult control ([2]; insult MPP+ (500 uM) 24 hours, 100 nM (second column so headed) + HGF (5 ng/ml)): +++ (+++=p<0.001)
- Protection of cell viability, statistical significance vs. insult control ([2]; insult MPP+ (500 uM) 24 hours, 1 uM + HGF (5 ng/ml)): +++ (+++=p<0.001)
